Tests used:
[1] = target: Cyclin-dependent kinase 4 (Homo sapiens, UniProt P11802); test: Inhibition of Cyclin-dependent kinase 4
[2] = target: Epidermal growth factor receptor (Homo sapiens, UniProt P00533); test: Inhibition of Epidermal growth factor receptor
[3] = target: Tyrosine-protein kinase Lck (Homo sapiens, UniProt P06239); test: Inhibition of p56 Lck tyrosine kinase
[4] = target: Tyrosine-protein kinase JAK1 (Homo sapiens, UniProt P23458); test: Inhibition of Janus kinase 1
Tyrosine-protein kinase JAK1, sequence (P23458 whole entry): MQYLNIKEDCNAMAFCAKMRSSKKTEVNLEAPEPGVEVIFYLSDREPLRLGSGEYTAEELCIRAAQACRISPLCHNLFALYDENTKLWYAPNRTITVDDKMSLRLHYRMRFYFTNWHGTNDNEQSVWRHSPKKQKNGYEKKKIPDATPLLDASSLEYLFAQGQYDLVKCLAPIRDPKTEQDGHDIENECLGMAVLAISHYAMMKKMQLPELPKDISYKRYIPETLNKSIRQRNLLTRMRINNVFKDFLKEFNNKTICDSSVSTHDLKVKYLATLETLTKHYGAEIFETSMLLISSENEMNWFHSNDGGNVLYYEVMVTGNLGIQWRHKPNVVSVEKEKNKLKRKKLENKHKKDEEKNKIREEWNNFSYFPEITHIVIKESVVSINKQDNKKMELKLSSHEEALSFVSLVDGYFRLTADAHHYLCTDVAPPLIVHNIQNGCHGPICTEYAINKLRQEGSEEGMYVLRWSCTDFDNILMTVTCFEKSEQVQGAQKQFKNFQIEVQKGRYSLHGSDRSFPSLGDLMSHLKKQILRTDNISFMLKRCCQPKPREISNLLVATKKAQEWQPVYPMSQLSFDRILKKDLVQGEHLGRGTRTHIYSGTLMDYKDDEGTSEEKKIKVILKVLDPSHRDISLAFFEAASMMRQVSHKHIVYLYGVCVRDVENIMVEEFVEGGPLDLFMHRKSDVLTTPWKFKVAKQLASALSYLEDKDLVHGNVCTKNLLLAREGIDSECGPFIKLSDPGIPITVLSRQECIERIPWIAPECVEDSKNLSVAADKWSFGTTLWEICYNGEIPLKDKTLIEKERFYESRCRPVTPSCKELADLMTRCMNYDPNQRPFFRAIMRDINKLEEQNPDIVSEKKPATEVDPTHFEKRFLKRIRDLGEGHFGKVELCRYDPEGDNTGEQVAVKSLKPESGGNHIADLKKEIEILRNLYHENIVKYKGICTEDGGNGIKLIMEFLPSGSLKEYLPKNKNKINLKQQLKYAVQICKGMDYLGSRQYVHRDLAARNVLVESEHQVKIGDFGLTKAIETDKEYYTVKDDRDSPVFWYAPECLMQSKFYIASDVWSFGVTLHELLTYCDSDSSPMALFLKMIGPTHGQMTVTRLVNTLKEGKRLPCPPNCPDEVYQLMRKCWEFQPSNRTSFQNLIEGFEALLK

Tyrosine-protein kinase Lck, sequence (P06239 whole entry): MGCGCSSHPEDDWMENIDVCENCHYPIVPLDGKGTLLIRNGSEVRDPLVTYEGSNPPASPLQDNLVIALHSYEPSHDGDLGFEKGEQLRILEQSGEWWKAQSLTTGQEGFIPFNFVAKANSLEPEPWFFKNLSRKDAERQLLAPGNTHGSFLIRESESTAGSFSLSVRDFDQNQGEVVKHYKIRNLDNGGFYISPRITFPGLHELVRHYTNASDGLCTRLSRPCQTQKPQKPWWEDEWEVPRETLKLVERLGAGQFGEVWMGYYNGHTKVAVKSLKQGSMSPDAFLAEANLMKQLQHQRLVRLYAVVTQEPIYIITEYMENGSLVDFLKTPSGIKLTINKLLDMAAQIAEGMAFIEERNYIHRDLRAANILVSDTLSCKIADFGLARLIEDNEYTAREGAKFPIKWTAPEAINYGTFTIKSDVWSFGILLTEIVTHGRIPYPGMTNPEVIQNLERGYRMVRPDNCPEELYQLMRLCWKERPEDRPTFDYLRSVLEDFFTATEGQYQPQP
Cyclin-dependent kinase 4, sequence (P11802 whole entry): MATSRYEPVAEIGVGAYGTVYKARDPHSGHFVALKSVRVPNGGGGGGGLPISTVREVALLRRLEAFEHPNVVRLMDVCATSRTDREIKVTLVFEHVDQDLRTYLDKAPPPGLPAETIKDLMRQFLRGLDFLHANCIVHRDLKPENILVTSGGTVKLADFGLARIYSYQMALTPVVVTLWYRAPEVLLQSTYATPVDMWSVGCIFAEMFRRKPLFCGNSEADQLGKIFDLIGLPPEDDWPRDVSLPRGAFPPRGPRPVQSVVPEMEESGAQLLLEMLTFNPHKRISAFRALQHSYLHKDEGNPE
Epidermal growth factor receptor, sequence (P00533 whole entry): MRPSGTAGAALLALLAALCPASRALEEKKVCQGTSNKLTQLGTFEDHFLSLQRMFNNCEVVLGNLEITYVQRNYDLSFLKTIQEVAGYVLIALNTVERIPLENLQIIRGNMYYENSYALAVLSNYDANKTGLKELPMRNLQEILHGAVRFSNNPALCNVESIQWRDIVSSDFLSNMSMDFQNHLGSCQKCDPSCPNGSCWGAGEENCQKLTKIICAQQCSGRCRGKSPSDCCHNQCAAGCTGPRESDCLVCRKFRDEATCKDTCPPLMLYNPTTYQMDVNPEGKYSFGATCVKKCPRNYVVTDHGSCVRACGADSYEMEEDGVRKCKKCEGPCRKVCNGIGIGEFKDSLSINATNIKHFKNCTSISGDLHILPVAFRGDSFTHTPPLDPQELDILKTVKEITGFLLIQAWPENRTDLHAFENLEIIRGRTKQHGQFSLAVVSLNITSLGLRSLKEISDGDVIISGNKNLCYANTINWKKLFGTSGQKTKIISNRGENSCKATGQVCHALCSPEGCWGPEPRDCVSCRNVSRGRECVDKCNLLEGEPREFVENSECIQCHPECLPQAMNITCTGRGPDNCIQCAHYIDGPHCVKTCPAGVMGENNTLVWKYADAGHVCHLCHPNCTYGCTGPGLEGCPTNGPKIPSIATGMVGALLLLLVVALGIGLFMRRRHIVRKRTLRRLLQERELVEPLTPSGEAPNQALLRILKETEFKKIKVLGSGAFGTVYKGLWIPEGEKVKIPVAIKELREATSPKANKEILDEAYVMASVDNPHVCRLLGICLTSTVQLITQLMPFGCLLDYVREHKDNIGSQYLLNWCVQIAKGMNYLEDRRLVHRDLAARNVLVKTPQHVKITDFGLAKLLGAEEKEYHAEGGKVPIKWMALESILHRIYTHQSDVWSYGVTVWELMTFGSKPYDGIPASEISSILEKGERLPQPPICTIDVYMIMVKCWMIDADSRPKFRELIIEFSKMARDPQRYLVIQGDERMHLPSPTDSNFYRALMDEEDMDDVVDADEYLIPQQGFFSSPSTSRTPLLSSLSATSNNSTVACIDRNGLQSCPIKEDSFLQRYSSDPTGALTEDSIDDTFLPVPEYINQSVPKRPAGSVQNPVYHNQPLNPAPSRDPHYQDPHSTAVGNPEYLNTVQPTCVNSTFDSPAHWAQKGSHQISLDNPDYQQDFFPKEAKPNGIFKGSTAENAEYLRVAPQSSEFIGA

| SMILES | IC50 [1] [µM] | IC50 [2] [µM] | IC50 [3] [µM] | IC50 [4] [µM] |
| --- | --- | --- | --- | --- |
| C=CC(=O)c1ccc2ccccc2c1 | > 10 | 10 | > 10 | 20 |
| CC(C)N(CCC(=O)c1ccc2ccccc2c1)Cc1ccccc1 | > 10 | 2.51 | > 10 | 39.8 |

Source: ChEMBL document CHEMBL1133428, “Naphthyl ketones: a new class of Janus kinase 3 inhibitors” (Bioorg Med Chem Lett, 2000)
